# Columns and labels:
# [1] = Acute toxicity in Kunming mouse assessed as change in body weight at 2000 mg/kg, po measured for 7 days; assay type: organism-based; conditions: in vivo, time 7 day
# [2] = Selectivity index, ratio of CC50 for human MT4 cells to EC50 for antiviral activity against HIV-1 IIIB harboring K103N/Y181C double mutant infected in human MT4 cells; assay type: toxicity, cell-based; conditions: read-out: Ratio CC50/EC50
# [3] = AUC(0 to infinity) in Sprague-Dawley rat at 10 mg/kg, po measured upto 12 hrs by LC-MS/MS analysis; assay type: ADME, organism-based; design: route oral, dose 10 mg/kg, time <=12; conditions: in vivo
# [4] = system: Human immunodeficiency virus 1; assay: Antiviral activity against HIV-1 harboring reverse transcriptase F227L/V106A mutant infected in human MT4 cells assessed as protection against virus-induced cytopathic effect incubated for 5 days by MTT assay; conditions: Human immunodeficiency virus 1, MT4, 120 h
# [5] = system: Human immunodeficiency virus 1; assay: Antiviral activity against HIV-1 IIIB infected in human MT4 cells assessed as protection against virus-induced cytotoxicity incubated for 5 days by MTT assay; assay type: functional, organism-based; conditions: Human immunodeficiency virus 1, IIIB, MT4, 120 h
# [6] = Oral bioavailability in Sprague-Dawley rat at 10 mg/kg measured upto 12 hrs by LC-MS/MS analysis; assay type: ADME, organism-based; conditions: in vivo
# [7] = system: Human immunodeficiency virus 1; assay: Antiviral activity against HIV1 L1001 infected in human MT4 cells assessed as protection against virus-induced cytopathic effect incubated for 5 days by MTT assay; assay type: functional, organism-based; conditions: Human immunodeficiency virus 1, L1001, MT4, 120 h
# [8] = Aqueous solubility of the compound at pH 2.0 by HPLC analysis; assay type: physicochemical; conditions: buffer
# [9] = AUC(0 to infinity) in Sprague-Dawley rat at 2 mg/kg, iv measured upto 10 hrs by LC-MS/MS analysis; assay type: ADME, organism-based; design: route intravenous, dose 2 mg/kg, time <=10; conditions: in vivo
# [10] = Clearance in Sprague-Dawley rat at 2 mg/kg, iv measured upto 10 hrs by LC-MS/MS analysis; assay type: ADME, organism-based; conditions: in vivo
# [11] = Tmax in Sprague-Dawley rat at 2 mg/kg, iv measured upto 10 hrs by LC-MS/MS analysis; assay type: ADME, organism-based; conditions: in vivo
# [12] = Cytotoxicity against human MT4 cells assessed as reduction in cell viability incubated for 5 days by MTT assay; assay type: toxicity, cell-based; conditions: time 5 day
# [13] = system: Human immunodeficiency virus 1; assay: Antiviral activity against HIV-1 IIIB harboring K103N/Y181C double mutant infected in human MT4 cells assessed as protection against virus-induced cytotoxicity incubated for 5 days by MTT assay; assay type: functional, organism-based; conditions: Human immunodeficiency virus 1, IIIB, MT4, 120 h
# [14] = Aqueous solubility of the compound at pH 7.4 by HPLC analysis; assay type: physicochemical; conditions: buffer
# [15] = Aqueous solubility of the compound at pH 7.0 by HPLC analysis; assay type: physicochemical; conditions: buffer
# [16] = biological target: Human immunodeficiency virus type 1 reverse transcriptase (Human immunodeficiency virus 1, UniProt Q72547); assay: Inhibition of wild type HIV-1 reverse transcriptase using biotin-labelled dNTPs as substrate incubated for 2 hrs by ELISA
# [17] = system: Human immunodeficiency virus 1; assay: Potency index, ratio of rilpivirine EC50 to test compound EC50 for antiviral activity against HIV-1 harboring reverse transcriptase Y188L mutant infected in human MT4 cells assessed as protection against virus-induced cytopathic effect incubated for 5 days by MTT assay; assay type: functional; conditions: time 5 day
# [18] = Terminal half life in Sprague-Dawley rat at 10 mg/kg, po measured upto 12 hrs by LC-MS/MS analysis; assay type: ADME, organism-based; conditions: in vivo, read-out: beta t1/2 (converted)
# [19] = Tmax in Sprague-Dawley rat at 10 mg/kg, po measured upto 12 hrs by LC-MS/MS analysis; assay type: ADME, organism-based; conditions: in vivo
# [20] = Cmax in Sprague-Dawley rat at 2 mg/kg, iv measured upto 10 hrs by LC-MS/MS analysis; assay type: ADME, organism-based; design: route intravenous, dose 2 mg/kg, time <=10; conditions: in vivo
# [21] = Cmax in Sprague-Dawley rat at 10 mg/kg, po measured upto 12 hrs by LC-MS/MS analysis; assay type: ADME, organism-based; design: route oral, dose 10 mg/kg, time <=12; conditions: in vivo
# [22] = Terminal half life in Sprague-Dawley rat at 2 mg/kg, iv measured upto 10 hrs by LC-MS/MS analysis; assay type: ADME, organism-based; conditions: in vivo, read-out: beta t1/2 (converted)
# [23] = system: Human immunodeficiency virus 1; assay: Antiviral activity against HIV-1 harboring reverse transcriptase E138K mutant infected in human MT4 cells assessed as protection against virus-induced cytopathic effect incubated for 5 days by MTT assay; conditions: Human immunodeficiency virus 1, MT4, 120 h
# [24] = system: Human immunodeficiency virus 1; assay: Antiviral activity against HIV-1 harboring reverse transcriptase K103N mutant infected in human MT4 cells assessed as protection against virus-induced cytopathic effect incubated for 5 days by MTT assay; conditions: Human immunodeficiency virus 1, MT4, 120 h
# [25] = AUC(0 to t) in Sprague-Dawley rat at 2 mg/kg, iv measured upto 10 hrs by LC-MS/MS analysis; assay type: ADME, organism-based; design: route intravenous, dose 2 mg/kg, time <=10; conditions: in vivo
# [26] = AUC(0 to t) in Sprague-Dawley rat at 10 mg/kg, po measured upto 12 hrs by LC-MS/MS analysis; assay type: ADME, organism-based; design: route oral, dose 10 mg/kg, time <=12; conditions: in vivo
# [27] = Selectivity index, ratio of CC50 for human MT4 cells to EC50 for antiviral activity against HIV-1 IIIB infected in human MT4 cells; assay type: toxicity, cell-based; conditions: MT4 cells (uninfected and infected with HIV-1 IIIB), read-out: Ratio CC50/EC50
# [28] = system: Human immunodeficiency virus 1; assay: Potency index, ratio of rilpivirine EC50 to test compound EC50 for antiviral activity against HIV-1 harboring reverse transcriptase F227L/V106A mutant infected in human MT4 cells assessed as protection against virus-induced cytopathic effect incubated for 5 days by MTT assay; assay type: functional; conditions: time 5 day
# [29] = system: Human immunodeficiency virus 1; assay: Antiviral activity against HIV-1 harboring reverse transcriptase Y188L mutant infected in human MT4 cells assessed as protection against virus-induced cytopathic effect incubated for 5 days by MTT assay; conditions: Human immunodeficiency virus 1, MT4, 120 h
# [30] = system: Human immunodeficiency virus 1; assay: Antiviral activity against HIV-1 harboring reverse transcriptase Y181C mutant infected in human MT4 cells assessed as protection against virus-induced cytopathic effect incubated for 5 days by MTT assay; conditions: Human immunodeficiency virus 1, MT4, 120 h
# [31] = system: Human immunodeficiency virus 1; assay: Potency index, ratio of etravirine EC50 to test compound EC50 for antiviral activity against HIV-1 harboring reverse transcriptase F227L/V106A mutant infected in human MT4 cells assessed as protection against virus-induced cytopathic effect incubated for 5 days by MTT assay; assay type: functional; conditions: time 5 day
Structure (SMILES),Activity [1],selectivity ratio [2],AUC(0-inf) [3] [ng·h/mL],EC50 [4] [nM],EC50 [5] [nM],bioavailability [6] [%],EC50 [7] [nM],solubility [8] [µg/mL],AUC(0-inf) [9] [ng·h/mL],clearance [10] [mL/min/kg],Tmax [11] [min],CC50 at 120 h [12] [µM],EC50 [13] [nM],solubility [14] [µg/mL],solubility [15] [µg/mL],IC50 [16] [nM],half-life [18] [min],Tmax [19] [h],Cmax [20] [ng/mL],Cmax [21] [ng/mL],also measured
Cc1cc(/C=C/C#N)cc(C)c1Oc1nc(NC2CCN(Cc3ccc(C(N)=O)cc3)CC2)nc2c1COC2,Non-Toxic,2060,809,9.67,2.85,32.1,3.9,187,503,66.3,1.98,24.1,11.7,5.24,25.4,140,63,2.12,480,250,Ratio EC50 [17]: 4.4; half-life [22]: 52.8 min; EC50 [23]: 6.76 nM; EC50 [24]: 2.14 nM; AUC(0-t) at 10 h [25]: 409 ng·h/mL; AUC(0-t) at 12 h [26]: 801 ng·h/mL; selectivity ratio [27]: 8450; Ratio EC50 [28]: 8.4; EC50 [29]: 18 nM; EC50 [30]: 6.09 nM
Cc1cc(/C=C/C#N)cc(C)c1Oc1nc(NC2CCN(c3ccc(NS(C)(=O)=O)cc3)CC2)nc2c1COC2,Non-Toxic,1390,753,5.79,6.17,16.6,12.4,124,908,36.7,1.98,38.8,27.9,2.1,10.1,150,88.2,1,756,307,half-life [22]: 66.6 min; Ratio EC50 [31]: 3.6; EC50 [23]: 7.66 nM; EC50 [24]: 6.91 nM; AUC(0-t) at 10 h [25]: 903 ng·h/mL; AUC(0-t) at 12 h [26]: 727 ng·h/mL; selectivity ratio [27]: 6290; Ratio EC50 [28]: 14; EC50 [29]: 28.3 nM; EC50 [30]: 8.91 nM
